Our source for the activity and Activity values is patent US8501713B2, “Drug combinations for the treatment of duchenne muscular dystrophy” (Summit Corporation PLC, priority 2007, dated 2013).

Molecules are shown by their SMILES.

In one assay the test system is Utrophin A promoter linked to a luciferase reporter gene. The assay can be described thus: Luciferase reporter assay (murine H2K cells). As to conditions: Mus musculus, H2K mdx, luciferase level relative to control; H2K/mdx/Utro A reporter cells; compound 10 μM final concentration; read-out: Activity. The format is cell-based. In a few lines: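 Compound at 10 μM final was applied for 48 hrs to plated H2K mdx myoblasts (33° C, 10% CO2, interferon-containing medium) bearing a luciferase gene under the utrophin A promoter. Luminescence from lysed cells served as read-out.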
On the technique in general: In a reporter assay the amount or activity of a reporter protein is the signal.
For the compound `CC(C)C(=O)Nc1ccc(-c2nc3ccccc3o2)cc1` [Example 454, N-(4-(Benzo[d]oxazol-2-yl)phenyl)isobutyramide], the activity at 10 µM is more than 401%.
As to `CCC(=O)Nc1ccc2oc(-c3ccc(Cl)cc3)nc2c1` [Example 207, N-(2-(4-chlorophenyl)benzo[d]oxazol-5-yl)propionamide], the activity at 10 µM was more than 401%.
The same measure, in the same setting: as for `NC(=O)c1ccc2oc(-c3ccc(Cl)cc3)nc2c1` [Example 264, 2-(4-chlorophenyl)benzo[d]oxazole-5-carboxamide], the figure is more than 401%.
In the case of `COc1ccc(-c2ccc3oc(-c4ccc(Cl)cc4)nc3c2)cn1` [Example 305, 2-(4-chlorophenyl)-5-(6-methoxypyridin-3-yl)benzo[d]oxazole], the activity at 10 µM is 201 to 300%.
The same measure, in the same setting: as for `CS(=O)(=O)c1ccc2oc(-c3ccc(Cl)cc3)nc2c1` [Example 400, 2-(4-chlorophenyl)-5-(methylsulfonyl)benzo[d]oxazole], the figure is 201 to 300%.
As to `CC(C)C(=O)Nc1ccc2ccn(C)c2c1` [Example 378, N-(1-methyl-1H-indol-6-yl)isobutyramide], the activity at 10 µM is less than 200%.
On the same count and under the same terms, as for `O=C(CCc1ccccc1)Nc1ccc2oc(-c3cccnc3)nc2c1` [Example 51, 3-phenyl-N-(2-(pyridin-3-yl)benzo[d]oxazol-5-yl)propanamide], the figure is less than 200%; as for `Cc1ccc(-c2nc3cc(NC(=O)c4ccncc4)ccc3o2)cc1` [Example 114, N-(2-p-tolylbenzo[d]oxazol-5-yl)isonicotinamide], less than 200%; as for `CCCC(=O)Nc1ccc2[nH]c(-c3ccc(Cl)cc3)nc2c1` [Example 178, N-(2-(4-chlorophenyl)-1H-benzo[d]imidazol-5-yl)butyramide], less than 200%.
Turning to `COc1ccc(-c2nc3cc(NC(=O)c4ccncc4)ccc3o2)cc1` [Example 134, N-(2-(4-methoxyphenyl)benzo[d]oxazol-5-yl)isonicotinamide], the activity at 10 µM is less than 200%.
Turning to `CCS(=O)(=O)c1ccc(-c2ccc3oc(-c4ccc(Cl)cc4)nc3c2)cc1` [Example 269, 2-(4-chlorophenyl)-5-(4-(ethylsulfonyl)phenyl)benzo[d]oxazole], the activity at 10 µM was less than 200%.
On to `Nc1ccc2sc(-c3ccc(Cl)c(Cl)c3)nc2c1` [Example 284, 2-(3,4-dichlorophenyl)benzo[d]thiazol-5-amine], for which the activity at 10 µM is more than 401%.
The same measure, in the same setting: under `CC(O)c1ccc2oc(-c3ccc(Cl)cc3)nc2c1` (centres unmarked) [Example 446, 2-(4′-chlorophenyl)-5-(1′-hydroxyethyl)-benzoxazole] stands more than 401%.
With `Cc1ccc(-c2nc3cc(NC(=O)C(C)C)ccc3o2)cc1` [Example 118, N-(2-p-tolylbenzo[d]oxazol-5-yl)isobutyramide], the activity at 10 µM lay within 201 to 300%.
On the same count and under the same terms, under `O=C(Nc1ccc2oc(-c3cccnc3)nc2c1)c1ccc(Cl)cc1` [Example 40, 4-chloro-N-(2-(pyridin-3-yl)benzo[d]oxazol-5-yl)benzamide] stands less than 200%.
As for `O=C(Nc1ccc2oc(-c3ccccc3)nc2c1)c1ccc(Cl)cc1` [Example 23, 4-chloro-N-(2-phenylbenzo[d]oxazol-5-yl)benzamide], the activity at 10 µM was less than 200%.
Consider `CC(C)C(=O)Nc1ccc2sc(-c3cccc(Cl)c3)nc2c1` [Example 296, N-(2-(3-chlorophenyl)benzo[d]thiazol-5-yl)isobutyramide], for which the activity at 10 µM is more than 401%.
Still for that read-out and setting: under `Nc1ccc(C(=O)Nc2ccc(-c3nc4cc(Br)ccc4o3)cc2)cc1` [Example 337, 4-amino-N-(4-(5-bromobenzo[d]oxazol-2-yl)phenyl)benzamide] stands less than 200%; under `CCCC(=O)Nc1ccc2nc(-c3ccc(Cl)cc3)oc2c1` [Example 256, N-(2-(4-chlorophenyl)benzo[d]oxazol-6-yl)butyramide], 201 to 300%.
For `Clc1ccc(-c2nc3cc4c(cc3o2)OCO4)cc1` [Example 310, 2-(4-chlorophenyl)-5,6-methylenedioxybenzoxazole], the activity at 10 µM is 301 to 400%.
Same read-out and setting: under `c1ccc(CNc2ccc3oc(-c4ccccc4)nc3c2)cc1` [Example 156, N-benzyl-2-phenylbenzo[d]oxazol-5-amine] stands 301 to 400%; under `Clc1ccc(-c2nc3cc(-c4ccc(N5CCOCC5)nc4)ccc3o2)cc1` [Example 316, 2-(4-chlorophenyl)-5-(6-morpholinopyridin-3-yl)benzo[d]oxazole], less than 200%.
Same read-out and setting: under `CC(C)C(=O)Nc1ccc2oc(-c3cc(F)ccc3Cl)nc2c1` [Example 344, N-(2-(2-chloro-5-fluorophenyl)benzo[d]oxazol-5-yl)isobutyramide] stands less than 200%; under `O=C(Nc1ccc2oc(-c3ccc(Cl)cc3)nc2c1)C1CCC1` [Example 266, N-(2-(4-chlorophenyl)benzo[d]oxazol-5-yl)cyclobutanecarboxamide], 301 to 400%.
The same measure, in the same setting: under `CCCCC(=O)Nc1ccc2oc(-c3cccnc3)nc2c1` [Example 55, N-(2-(pyridin-3-yl)benzo[d]oxazol-5-yl)pentanamide] stands less than 200%; under `CCS(=O)(=O)c1ccc2oc(-c3cnc4ccccc4c3)nc2c1` [Example 423, 5-(ethylsulfonyl)-2-(quinolin-3-yl)benzo[d]oxazole], more than 401%.
Consider `Cc1ccc(C(=O)Nc2ccc3oc(-c4cccnc4)nc3c2)cc1` [Example 41, 4-methyl-N-(2-(pyridin-3-yl)benzo[d]oxazol-5-yl)benzamide], for which the activity at 10 µM was less than 200%.
Regarding `CC(C)C(=O)Nc1ccc2oc(C3CCCC3)nc2c1` [Example 364, N-(2-cyclopentylbenzo[d]oxazol-5-yl)isobutyramide], the activity at 10 µM is less than 200%.
Same read-out and setting: under `Cc1ccc(-c2nc3cc(NC(=O)c4ccc(Cl)cc4)ccc3o2)cc1` [Example 19, 4-chloro-N-(2-p-tolylbenzo[d]oxazol-5-yl)benzamide] stands less than 200%; under `O=C(Nc1ccc2oc(-c3cccnc3)nc2c1)c1ccc(Cl)c(Cl)c1` [Example 45, 3,4-dichloro-N-(2-(pyridin-3-yl)benzo[d]oxazol-5-yl)benzamide], less than 200%; under `Nc1ccc2oc(-c3ccc4cc(Br)ccc4c3)nc2c1` [Example 405, 2-(6-bromonaphthalen-2-yl)benzo[d]oxazol-5-amine], less than 200%.
Still for that read-out and setting: under `CCCCC(=O)Nc1ccc2oc(-c3ccc(N(CC)CC)cc3)nc2c1` [Example 77, N-(2-(4-(diethylamino)phenyl)benzo[d]oxazol-5-yl)pentanamide] stands 201 to 300%; under `O=C(Nc1ccc2oc(-c3cccnc3)nc2c1)c1ccco1` [Example 57, N-(2-(pyridin-3-yl)benzo[d]oxazol-5-yl)furan-2-carboxamide], less than 200%.
The same measure, in the same setting: as for `O=C(CC(F)(F)F)Nc1ccc2oc(-c3ccc(Cl)c(Cl)c3)nc2c1` [Example 352, N-(2-(3,4-dichlorophenyl)benzo[d]oxazol-5-yl)-3,3,3-trifluoropropanamide], the figure is more than 401%; as for `CCCC(=O)Nc1ccc2oc(-c3ccc(C(F)(F)F)cc3)nc2c1` [Example 125, N-(2-(4-(trifluoromethyl)phenyl)benzo[d]oxazol-5-yl)butyramide], less than 200%; as for `Nc1ccc2oc(-c3ccc(OC(F)(F)F)cc3)nc2c1` [Example 350, 2-(4-(trifluoromethoxy)phenyl)benzo[d]oxazol-5-amine], 201 to 300%.
On to `O=C(CC(F)(F)F)Nc1ccc2oc(-c3ccccc3)cc2c1` [Example 408, 2-phenyl-5-(3′,3′,3′-trifluoropropanamido)benzofuran], for which the activity at 10 µM is less than 200%.

Staying with this assay, now noted: luciferase reporter assay in murine H2K cells; classified relative to control.
Consider `CCSc1nc2ccc(N)cc2s1` [Example 563], for which the Activity result was “++ (Between 201% and 300% relative to control)”.
Consider `COCc1nc2ccccc2[nH]1` [Example 499], for which the Activity entry is given as “+ (Up to 200% relative to control)”.
As for `CN(C)c1ccc(-c2nc3ccccc3[nH]2)cc1` [Example 498], the Activity entry was “+ (Up to 200% relative to control)”.
The same measure, in the same setting: as for `Nc1ccc2oc(-c3ccc(Cl)cc3)nc2c1` [Example 488], the entry is “++ (Between 201% and 300% relative to control)”.
As to `CCS(=O)(=O)c1ccc2oc(S)nc2c1` [Example 574], the Activity entry is on record as “+ (Up to 200% relative to control)”.
On to `CCC(=O)Nc1cccc(-c2nc3cc(C)ccc3o2)c1` [Example 644], for which the Activity result is “+++ (Between 301% and 400% relative to control)”.
Turning to `COc1ccc(-c2nc3cc([N+](=O)[O-])ccc3o2)cc1OC` [Example 537], the Activity result is listed as “+ (Up to 200% relative to control)”.
`COc1ccc(-c2nc3cc(N)ccc3o2)cc1OC` [Example 515]: the Activity entry was “++ (Between 201% and 300% relative to control)”.
Regarding `Nc1ccc2oc(-c3ccc(O)cc3)nc2c1` [Example 496], the Activity result was “++ (Between 201% and 300% relative to control)”.
Take `O=C(NCCc1ccccc1)c1cc2ccccc2o1` [Example 665]: the Activity result was “++ (Between 201% and 300% relative to control)”.
Regarding `O=C(Nc1nc2ccc(F)cc2s1)c1ccccc1Br` [Example 629], the Activity entry was “++++ (Above 401% relative to control)”.
On the same count and under the same terms, as for `Clc1ccc(SCc2ccc(-c3nc4ccccc4[nH]3)cc2)cc1` [Example 460], the entry is “+ (Up to 200% relative to control)”; as for `Cc1ccccc1C(=O)Nc1nc2ccccc2[nH]1` [Example 648], “+++ (Between 301% and 400% relative to control)”; as for `CCCS(=O)(=O)c1ccc2oc(-c3ccc(Cl)cc3)nc2c1` [Example 578], “+ (Up to 200% relative to control)”.
On to `O=C(Nc1ccc(-c2nc3ccccc3[nH]2)cc1)C1CCCO1` (centres unmarked) [Example 587], for which the Activity result is “+++ (Between 301% and 400% relative to control)”.
Same read-out and setting: as for `Clc1cccc(-c2nc3ccccc3[nH]2)c1` [Example 514], the entry is “+ (Up to 200% relative to control)”.
